Test results: patent EP3895686A1, “NATURAL COMPOSITION FOR HAIR GROWTH STIMULATION AND HAIR LOSS PREVENTION AND TREATMENT” (FRAUNHOFER-GESELLSCHAFT zur Förderung der angewandten …, priority 2020, dated 2021)

Experiments:
Assay type in all cases: cell-based
[1] = system: Human Follicle Dermal Papilla Cells (HFDPC); test: Assessment of cell morphology by phase contrast microscopy; details: for cell adherence and proliferation (summary of morphology): diosgenin concentration-dependent
Protocol: (§1) First, Human Follicle Dermal Papilla Cells (HFDPC) cells were thawed and seeded into collagen-coated cell culture flasks (T25). Then the medium was changed every 48 h. After 4 days the cells were trypsinized and seeded in T75 cell culture flask. In preparation for the final experiment, the cells were trypsinized and then counted with a cell counter. The cell concentration was then adjusted in a defined amount of medium followed by seeding of the cells in 96-well plates for the subsequent cell impedance measurements (5000 cells per well) or in 24-well plates (20000 cells per well). Subsequently, the cells were cultivated for 7 days in pure culture medium with regular medium changes after 2-3 days. After 7 days, the medium with the additives listed in Table 1 was added (designated as day 0), followed by a 3-week cultivation of the cells. The medium (and addition of fresh active substances) was changed every 2-3 days. […] The following examinations were carried out after 7, 14 and 21 days.
Cell morphology was assessed through microscopic examination of the cells with an inverted microscope (phase contrast microscopy) at 10x and 20x primary magnification. The morphology of the cells provides information on the adherence behaviour of the cells,possible cell activation and cell stress. This examination was carried out on a 24-well scale.

[2] = system: Human Follicle Dermal Papilla Cells (HFDPC); test: VEGF-ELISA (VEGF secretion)
Protocol: VEGF belongs to the signal molecules and stimulates the proliferation and migration of HFDPC. HFDPC generate more VEGF in the anagen phase. Thus, VEGF is an indication of the anagen phase of a hair. The detection of the VEGF protein was performed with the Human VEGF ELISA Kit from Invitrogen. The procedure was performed according to the protocol contained in the test kit with the cell supernatants previously frozen at -80°C. The removal of the cell culture supernatants was carried out on a 24-well scale. A higher value for the VEGF [pg/ml] (y-axis) means a higher value of detected VEGF. A higher VEGF value is an indication for a longer anagen phase. A longer anagen phase is an indication for more hair growth.
as §1
VEGF belongs to the signal molecules and stimulates the proliferation and migration of HFDPC. HFDPC generate more VEGF in the anagen phase. Thus VEGF is an indication of the anagen phase of a hair. […] The detection of the VEGF protein was performed with the Human VEGF ELISA Kit from invitrogen. The procedure was performed according to the protocol contained in the test kit with the cell supernatants previously frozen at -80°C. The removal of the cell culture supernatants was carried out on a 24-well scale.
VEGF was analyzed in the cell culture supernatant to check whether the active ingredients have an influence on cell function and, if so, whether they promote the release of VEGF (see figure).

[3] = system: Human Follicle Dermal Papilla Cells (HFDPC); test: Cell count after trypsination; details: for cell number compared to untreated cells: depending on concentration and time; for influence on the cell count (conclusion): over 3 weeks
Protocol: as §1
This investigation was performed on a 24-well scale.
To perform this investigation 5000 cells per well were seeded in the 96-wells with the addition of a maximum of 200 µl medium. The cells were grown for 7 days in pure cell culture medium. The medium was changed every 2-3 days, whereby 100 µl of old medium was removed and replaced by 100 µl of new medium. After 7 days the "pure" cell culture medium was completely removed and medium with the respective additives was added. The cells were then cultivated for 3 weeks with regular replacement of the medium with the respective additives. Cell counting after trypsinizing: The exact cell count of HFDPC was determined after trypsination of the cells in the respective well and uptake of the resulting cell pellets in medium. All pellets of one sample were combined in a cell culture vessel and then counted with a cell counter.

[4] = system: Human Follicle Dermal Papilla Cells (HFDPC); test: Immunofluorescent staining of vimentin; details: 2c (higher concentration)
[5] = system: Human Follicle Dermal Papilla Cells (HFDPC); test: Cell impedance test on proliferation and toxicity (xCELLigence, cell index)
Protocol: The influence of various substances on the growth of HDPFC was investigated with the aid of a cell impedance device (xCELLigence® RTCA DP).
To perform this study 5000 HFDPC (Passage: 5) per well were seeded in the 16-well wells, coated on 50 µL collagen with the addition of a maximum of 200 µl medium. The cells were grown for 96 h in pure cell culture medium. After 96 h the "pure" cell culture medium was completely removed and medium with the respective additives was added. A further change with the respective additives took place after 48 h.
The CI (y-axis) is thus a measure of cell proliferation, cell morphology and cell vitality (only vital, adherent HFDPC can proliferate) overtime (x-axis).
The investigation of cell proliferation (cell index CI) or the exact determination of the cell number was carried out in order to detect a possible cytotoxic effect of the substances after addition to the cells. At the beginning of the experiment, the cells were confluently seeded in order to be able to " focus " on the induction of hair growth afterwards.
The influence of various substances on the growth of HDPFC was investigated with the aid of a cell impedance device (xCELLigence® RTCA DP). The xCELLigence® system consists of a measuring unit and software that allows to follow the cell invasion and migration in real time without the influence of additional substances for cell visualization, which could potentially have an impact on the cells. The system measures the electrical impedance via microelectrodes integrated on the bottom of the tissue culture E-plate. It enables the monitoring of changes in adhesion, spreading and proliferation of different cell types in real time, based on the measured cell-electrode impedance. […] This index is composed as follows: CI = (Rtn −Rt0)/(Fi) [formula]
Rtn and Rt0 are the frequency-dependent electrode resistances (a component of the impedance), where Rt0 is measured at time T0 (without cells) and Rtn with cells present. Fi depends on the frequency used in the measurement. Thus CI is a quantitative measure of the number of cells in an electrode-containing well, when comparing the same cell types. Under the same physiological conditions, more cells adhered to the electrodes result in a higher Rtn value, which leads to a higher value for CI. In the absence of living cells (cell culture medium only) or in a suspension of dead cells, the cell index values are close to zero. After cellular attachment to the electrode, the measurement signal correlates linearly with the cell count throughout the experiment. This investigation was performed on a 96-well scale. To perform this study 5000 HFDPC (Passage: 5) per well were seeded in the 96-well wells, coated on 50 µL collagen with the addition of a maximum of 200 µl medium. The cells were grown for 96 h in pure cell culture medium. After 96 h the "pure" cell culture medium was completely removed and medium with the respective additives was added. A further change with the respective additives took place after 48 h. The CI is thus a measure of cell proliferation, cell morphology and cell vitality (only vital, adherent HFDPC can proliferate). (FIG 11)

[6] = 1c (lower concentration), after 3 weeks
[7] = one week after addition of the active ingredients
[8] = 250 µg/mL in medium, first 24 hours after addition

With `CCCCC/C=C\C/C=C\C/C=C\C/C=C\CCCC(=O)[O-].[Na+]` [arachidonate, Sodium Arachidonate] the “cell morphology / confluence” value ([1]; second week of the experiment) was “almost the same morphology”, the cell density ([1]; second week, higher concentration) was “higher cell density” and the VEGF release [2, 6] was “lower VEGF release”. For the same molecule, the cell count ([3]; after 3 weeks, higher concentration, compared to untreated cells) was “increase in HFDPC”, the cell count ([3]; entire duration of the experiment, independent of time and concentration) was “did not negatively affect the cell count” and the cell count ([3]; over 2 weeks) was “remained constant”. For the same molecule, the “cell spreading and attachment to the cell culture substrate (vimentin staining)” value [4] was “able to clearly spread and attach to the cell culture substrate”, the cell index ([5]; 50 µg/mL in medium) was “increase the cell index” and the “toxic effect on the cells” value ([5]; 50 µg/mL in medium) was “does not have a toxic effect”. For the same molecule, the “toxic effect on the cells” value ([5]; 100µg/mL in medium) was “has a toxic effect”.
`C[C@@H]1CC[C@@]2(OC1)O[C@H]1C[C@H]3[C@@H]4CC=C5C[C@@H](O)CC[C@]5(C)[C@H]4CC[C@]3(C)[C@H]1[C@@H]2C` [diosgenin, Diosgenin] was tested, and the “cell morphology / confluence” value ([1]; after 3 weeks, lower concentration) was “resembled untreated cells”, the “cell adherence and proliferation (summary of morphology)” value ([1]; after 3 weeks) was “very beneficial for cell adherence and proliferation” and the “cell morphology / confluence” value [1, 7] was “greater confluence”. The “cell morphology / confluence” value ([1]; second week of the experiment) was “very high confluence in the well and elongated, typical growth”, the VEGF release ([2]; 1c (lower concentration), after 1 week) was “lower VEGF release” and the VEGF release [2, 6] was “lower VEGF release”. The “number of HDFPC over time” value ([3]; 1c) was “remained constant after addition of Diosgenin 1c, but was increased compared to untreated cells”, the “cell number over time” value ([3]; 2c, compared to untreated and Diosgenin 1c treated cells) was “significant increase in cell number” and the “cell number compared to untreated cells” value [3] was “positive influence on the cell number”. For the same molecule, the “influence on the cell count (conclusion)” value [3] was “positive influence on the cell count”, the “cell spreading and attachment to the cell culture substrate (vimentin staining)” value [4] was “able to clearly spread and attach to the cell culture substrate” and the “toxic effect on the cells” value ([5]; measured maximum concentration of 500 µg/mL) was “not toxic”.
`CCCCCC[C@@H](O)C/C=C\CCCCCCCC(=O)O` [ricinoleic acid, 12-hydroxy-9-cis-octadecenoic acid] was tested, and the “cell morphology / confluence” value ([1]; after 3 weeks, both concentrations) was “confluent, very dense monolayer and an elongated cell shape”, the “cell adherence and proliferation (summary of morphology)” value ([1]; after 3 weeks) was “very beneficial for cell adherence and proliferation” and the “cell morphology / confluence” value [1, 7] was “greater confluence”. The “cell morphology / confluence” value ([1]; second week of the experiment) was “very high confluence in the well and elongated, typical growth”, the VEGF release ([2]; 2.c (higher concentration), after 3 weeks) was “lower VEGF release” and the cell count ([3]; after 1 week, compared to untreated cells) was “the difference was visible in both treated groups compared to untreated cells”. The “cell number compared to untreated cells” value [3] was “significant increase in cell count”, the “influence on the cell count (conclusion)” value [3] was “positive influence on the cell count” and the cell index ([5]; 100µg/mL, after 24 h and 48 h addition) was “remained constant”. For the same molecule, the cell index [5, 8] was “positive influence on the cell index”, the “toxic effect on the cells” value [5, 8] was “does not appear to have a toxic effect” and the cell index ([5]; 250 µg/mL, after 48h of repeated addition) was “decreases”.
